Experimental data as given in article PMC10447463, “Data-mining unveils structure–property–activity correlation of viral infectivity enhancing self-assembling peptides” (Nature Communications, 2023).

Experiments:
[1] = format: physicochemical; settings: for ThT Cat. / ThT-Fluorescence (categorical): ThT-active if fluorescence at least twice the control
Procedure, shortened: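 Preformed peptide fibrils (1 mg/mL) mixed with 50 µM ThT in PBS, 15 min at RT, fluorescence ex 440/em 488 nm versus PBS blank, triplicates. Zeta potential: peptides at 1 mg/mL in PBS pH 7.4, aged 1 d at RT, diluted in 1 mM KCl, Smoluchowski from electrophoretic mobility.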

[2] = Turbidity, derived count rate of scattered light; format: physicochemical; settings: for Count Rate / kcps: derived count rate of scattered light at 633 nm, 173°, from zeta-potential measurement, 0.1 mg/mL in 1 mM KCl after 1 d at 1 mg/mL in PBS, turbidity / microscopic aggregation, mean of triplicate
Procedure, shortened: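 Samples: 1 mg/mL in PBS pH 7.4 (from DMSO), 1 d at RT, then diluted in 1 mM KCl immediately before measurement. Triplicates, two independent runs averaged.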

| Substance | ThT Cat. / ThT-Fluorescence (categorical) [1] | Count Rate / kcps [2] [kcps] | Tht rel to blank (42.1851851851852) ([1]; ThT fluorescence relative to blank, blank = 42.1851851851852) | Tht category (> 1.5 to blank = +) ([1]; category 1/0) | Zeta Count Rate Category ([2]; category 1 / 0, no key given) | Zeta Count Rate / kcps ([2]; derived count rate of scattered light) [kcps] |
| --- | --- | --- | --- | --- | --- | --- |
| DFNKF [reference compound] | 0 (ThT-inactive (N-Fold <2)) | 1065 | – | – | – | – |
| VLYVGSKT [reference compound] | 0 (ThT-inactive (N-Fold <2)) | 24 | – | – | – | – |
| RIRIQIC [PS07] | – | – | 1.32 | 0 (ThT-inactive (N-Fold <2)) | 1 | 191.1 |
| IIKIIK [reference compound] | 0 (ThT-inactive (N-Fold <2)) | 4 | – | – | – | – |
| NSGAITIG-NH2 [reference compound] | 0 (ThT-inactive (N-Fold <2)) | 20 | – | – | – | – |
| GQTVTK [reference compound] | 0 (ThT-inactive (N-Fold <2)) | 34 | – | – | – | – |
| GAITIG-NH2 [reference compound] | 0 (ThT-inactive (N-Fold <2)) | 30 | – | – | – | – |
| RCELARTLKR [reference compound] | 0 (ThT-inactive (N-Fold <2)) | 78 | – | – | – | – |
| VQIVYK [reference compound] | 0 (ThT-inactive (N-Fold <2)) | 26 | – | – | – | – |
| GNNQQNY [reference compound] | 0 (ThT-inactive (N-Fold <2)) | 37 | – | – | – | – |
